Test results as given in PubChem BioAssay AID256 (DTP/NCI, 2004).
Several values for one entry are separate records, joined by “and”; a condition that tells them apart may be missing. Equal entries are not always repeated. Toxic doses and inconclusive results are not listed. How the source made its calls: active means survival T/C of 150% or more; inactive means T/C below 125% in these data.

Test system: CD2F1 mice, L1210 leukemia ip, survival T/C
Test: NCI In Vivo Anticancer Drug Screen. Data for tumor model L1210 Leukemia (intraperitoneal) in CD2F1 (CDF1) mice
Conditions: higher = longer survival
Summary of the method: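 Mice carrying a transplanted tumor received test compound or vehicle alone. The value is the measurement in the treated group divided by that in the vehicle-treated control group.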

[1] = endpoint: mean survival time, dose: 100.0 mg/kg/injection, schedule: Q04DX003 (ip), vehicle: saline with Tween-80
[2] = endpoint: mean survival time, dose: 200.0 mg/kg/injection, schedule: Q04DX003 (ip), vehicle: saline with Tween-80
[3] = endpoint: mean survival time, dose: 400.0 mg/kg/injection, schedule: Q04DX003 (ip), vehicle: saline with Tween-80
[4] = endpoint: mean survival time, dose: 100.0 mg/kg/injection, schedule: Q01DX009 (ip), vehicle: saline with Tween-80
[5] = endpoint: mean survival time, dose: 200.0 mg/kg/injection, schedule: Q01DX009 (ip), vehicle: saline with Tween-80
[6] = endpoint: mean survival time, dose: 400.0 mg/kg/injection, schedule: Q01DX009 (ip), vehicle: saline with Tween-80
[7] = endpoint: mean survival time, dose: 100.0 mg/kg/injection, schedule: Q04DX002 (ip), vehicle: saline with Tween-80
[8] = endpoint: mean survival time, dose: 200.0 mg/kg/injection, schedule: Q04DX002 (ip), vehicle: saline with Tween-80
[9] = endpoint: mean survival time, dose: 100.0 mg/kg/injection, schedule: Q01DX009 (ip), vehicle: other
[10] = endpoint: mean survival time, dose: 200.0 mg/kg/injection, schedule: Q01DX009 (ip), vehicle: other
[11] = endpoint: mean survival time, dose: 50.0 mg/kg/injection, schedule: Q01DX009 (ip), vehicle: saline with Tween-80
[12] = endpoint: mean survival time, dose: 100.0 mg/kg/injection, schedule: Q01DX001 (ip), vehicle: saline with Tween-80
[13] = endpoint: mean survival time, dose: 100.0 mg/kg/injection, schedule: Q01DX001 (ip), vehicle: Klucel (hydroxypropylcellulose) (HPC)
[14] = endpoint: mean survival time, dose: 200.0 mg/kg/injection, schedule: Q01DX001 (ip), vehicle: Klucel (hydroxypropylcellulose) (HPC)
[15] = endpoint: mean survival time, dose: 400.0 mg/kg/injection, schedule: Q01DX001 (ip), vehicle: Klucel (hydroxypropylcellulose) (HPC)

Measured: T/C

CCCCCC[C@H]([C@H](C)O)n1cnc2c(N)ncnc21
inactive: endpoint: mean survival time, dose: 0.38 mg/kg/injection, schedule: Q03HX024 (ip), vehicle: saline with Tween-80 92 % of control | endpoint: mean survival time, dose: 0.57 mg/kg/injection, schedule: Q03HX024 (ip), vehicle: saline with Tween-80 96 % of control | endpoint: mean survival time, dose: 1.3 mg/kg/injection, schedule: Q03HX024 (ip), vehicle: saline with Tween-80 102 % of control | endpoint: mean survival time, dose: 2.0 mg/kg/injection, schedule: Q03HX024 (ip), vehicle: saline with Tween-80 98 % of control | endpoint: mean survival time, dose: 3.0 mg/kg/injection, schedule: Q03HX024 (ip), vehicle: saline with Tween-80 96 % of control | endpoint: mean survival time, dose: 4.5 mg/kg/injection, schedule: Q03HX024 (ip), vehicle: saline with Tween-80 98 % of control | endpoint: mean survival time, dose: 5.0 mg/kg/injection, schedule: Q03HX024 (ip), vehicle: saline with Tween-80 104 % of control | endpoint: mean survival time, dose: 6.25 mg/kg/injection, schedule: Q01DX009 (ip), vehicle: Klucel (hydroxypropylcellulose) (HPC) 95 % of control and 100 % of control | endpoint: mean survival time, dose: 10.0 mg/kg/injection, schedule: Q03HX024 (ip), vehicle: saline with Tween-80 107 % of control | endpoint: mean survival time, dose: 12.5 mg/kg/injection, schedule: Q01DX009 (ip), vehicle: Klucel (hydroxypropylcellulose) (HPC) 98 % of control and 100 % of control | endpoint: mean survival time, dose: 25.0 mg/kg/injection, schedule: Q01DX009 (ip), vehicle: Klucel (hydroxypropylcellulose) (HPC) 100 % of control and 101 % of control | endpoint: mean survival time, dose: 25.0 mg/kg/injection, schedule: Q03HX024 (ip), vehicle: saline with Tween-80 105 % of control | endpoint: mean survival time, dose: 50.0 mg/kg/injection, schedule: Q01DX009 (ip), vehicle: Klucel (hydroxypropylcellulose) (HPC) 97 % of control and 100 % of control | endpoint: mean survival time, dose: 50.0 mg/kg/injection, schedule: Q03HX024 (ip), vehicle: saline with Tween-80 105 % of control | endpoint: mean survival time, dose: 100.0 mg/kg/injection, schedule: Q01DX009 (ip), vehicle: Klucel (hydroxypropylcellulose) (HPC) 95 % of control and 100 % of control | endpoint: mean survival time, dose: 100.0 mg/kg/injection, schedule: Q03HX024 (ip), vehicle: saline with Tween-80 96 % of control | endpoint: mean survival time, dose: 200.0 mg/kg/injection, schedule: Q01DX009 (ip), vehicle: Klucel (hydroxypropylcellulose) (HPC) 100 % of control | endpoint: median survival time, dose: 25.0 mg/kg/injection, schedule: Q01DX009 (ip), vehicle: Klucel (hydroxypropylcellulose) (HPC) 96 % of control | endpoint: median survival time, dose: 50.0 mg/kg/injection, schedule: Q01DX009 (ip), vehicle: Klucel (hydroxypropylcellulose) (HPC) 101 % of control | endpoint: median survival time, dose: 100.0 mg/kg/injection, schedule: Q01DX009 (ip), vehicle: Klucel (hydroxypropylcellulose) (HPC) 97 % of control

N#CCCC(C#N)(CCC#N)C(N)=O
inactive: [1] 98 % of control | [2] 98 % of control | [3] 107 % of control

CC(=O)C=C(C)[O][Tl]
inactive: endpoint: mean survival time, dose: 75.0 mg/kg/injection, schedule: Q01DX001 (ip), vehicle: saline 102 % of control

CCOC(=O)C(Cc1ccccc1)C1=NC(C)(C)CC(C)O1 (stereo unspecified)
inactive: endpoint: mean survival time, dose: 100.0 mg/kg/injection, schedule: Q04DX003 (ip), vehicle: acetone 102 % of control | endpoint: mean survival time, dose: 200.0 mg/kg/injection, schedule: Q04DX003 (ip), vehicle: acetone 109 % of control | endpoint: mean survival time, dose: 400.0 mg/kg/injection, schedule: Q04DX003 (ip), vehicle: acetone 97 % of control

O=C(NCCc1ccccc1)c1ccccc1
inactive: [4] 101 % of control | [5] 107 % of control | [6] 97 % of control

N#CCSc1nc(N)nc2nc[nH]c12
inactive: [4] 103 % of control | endpoint: mean survival time, dose: 100.0 mg/kg/injection, schedule: Q04DX003 (ip), vehicle: saline sonified 102 % of control | [5] 116 % of control | endpoint: mean survival time, dose: 200.0 mg/kg/injection, schedule: Q04DX003 (ip), vehicle: saline sonified 105 % of control | endpoint: mean survival time, dose: 400.0 mg/kg/injection, schedule: Q04DX003 (ip), vehicle: saline sonified 107 % of control

CCN=C(N)C(N)=NCC
inactive: endpoint: mean survival time, dose: 25.0 mg/kg/injection, schedule: Q04DX002 (ip), vehicle: saline with Tween-80 100 % of control | endpoint: mean survival time, dose: 50.0 mg/kg/injection, schedule: Q04DX002 (ip), vehicle: saline with Tween-80 96 % of control | [7] 100 % of control | [8] 100 % of control

N/C(=N\c1nc(N)cc(=O)[nH]1)Nc1ccc(S(N)(=O)=O)cc1
inactive: endpoint: mean survival time, dose: 100.0 mg/kg/injection, schedule: Q01DX009 (ip), vehicle: saline 96 % of control | endpoint: mean survival time, dose: 200.0 mg/kg/injection, schedule: Q01DX009 (ip), vehicle: saline 95 % of control | endpoint: mean survival time, dose: 400.0 mg/kg/injection, schedule: Q01DX009 (ip), vehicle: saline 95 % of control

CN(C)C=Nc1ccc([N+](=O)[O-])c2ccccc12
inactive: [9] 105 % of control | [10] 103 % of control | endpoint: mean survival time, dose: 400.0 mg/kg/injection, schedule: Q01DX009 (ip), vehicle: other 96 % of control

O=C(O)CC(Sc1ccccc1)c1ccccc1 (stereo unspecified)
inactive: endpoint: mean survival time, dose: 100.0 mg/kg/injection, schedule: Q04DX003 (ip), vehicle: other 97 % of control | endpoint: mean survival time, dose: 200.0 mg/kg/injection, schedule: Q04DX003 (ip), vehicle: other 101 % of control

C/C=C/C(O)C1CCCCC1 (stereo unspecified)
inactive: [11] 103 % of control | [4] 98 % of control | [5] 107 % of control

CC(C)(C)/C(=N\Nc1ccc([N+](=O)[O-])cc1[N+](=O)[O-])c1ccccc1
inactive: endpoint: mean survival time, dose: 25.0 mg/kg/injection, schedule: Q01DX001 (ip), vehicle: saline with Tween-80 97 % of control | endpoint: mean survival time, dose: 50.0 mg/kg/injection, schedule: Q01DX001 (ip), vehicle: saline with Tween-80 95 % of control | [12] 97 % of control

CC(=O)OCC1OC(OC(C)=O)C(NC(=O)Nc2cccc([N+](=O)[O-])c2)C(OC(C)=O)C1OC(C)=O (stereo unspecified)
inactive: endpoint: mean survival time, dose: 12.5 mg/kg/injection, schedule: Q01DX009 (ip), vehicle: other 96 % of control | endpoint: mean survival time, dose: 25.0 mg/kg/injection, schedule: Q01DX009 (ip), vehicle: other 96 % of control | endpoint: mean survival time, dose: 50.0 mg/kg/injection, schedule: Q01DX009 (ip), vehicle: other 98 % of control | [9] 100 % of control | [10] 93 % of control

O=C1OC(=O)C2C3CC(C4OC34)C12 (stereo unspecified)
inactive: [4] 103 % of control | [5] 97 % of control | [6] 87 % of control

CCOC(=O)CCC(NC(=O)c1ccc(N(Cc2ccccc2)Cc2cnc3nc(N)nc(N)c3n2)cc1)C(=O)OCC (stereo unspecified)
inactive: [13] 87 % of control | [14] 94 % of control | [15] 97 % of control

COc1ccc(NC(=O)Nc2ccccc2OC)c(Cl)c1
inactive: [7] 94 % of control | [8] 87 % of control | endpoint: mean survival time, dose: 400.0 mg/kg/injection, schedule: Q04DX002 (ip), vehicle: saline with Tween-80 97 % of control

CCC(c1ccc2cc(OC)ccc2c1)C(C(=O)O)C(=O)O (stereo unspecified)
inactive: endpoint: mean survival time, dose: 100.0 mg/kg/injection, schedule: Q04DX003 (ip), vehicle: Klucel (hydroxypropylcellulose) (HPC) 95 % of control | endpoint: mean survival time, dose: 200.0 mg/kg/injection, schedule: Q04DX003 (ip), vehicle: Klucel (hydroxypropylcellulose) (HPC) 93 % of control

COc1c(NS(=O)(=O)c2ccccc2)cc2c3c(cccc13)/C(=C1\Cc3cccc4c(OC)c(NS(=O)(=O)c5ccccc5)cc1c34)C2
inactive: [1] 95 % of control | [2] 91 % of control | [3] 92 % of control

Nc1ncnc2nc(-c3ccc(OCc4ccccc4)cc3)[nH]c12
inactive: [13] 97 % of control | [14] 89 % of control | [15] 95 % of control

Cc1cc(=O)[nH]c(Nc2ccccc2)n1
inactive: [1] 105 % of control | [2] 97 % of control | [3] 88 % of control

COC(C(O)C=O)C(O)C(O)CO (stereo unspecified)
inactive: [1] 96 % of control | [2] 101 % of control | [3] 95 % of control

O=C(O)C1C=CC(C(=O)O)c2ccccc21 (stereo unspecified)
inactive: [13] 91 % of control | [14] 90 % of control | [15] 91 % of control

Oc1ccccc1/C=N/c1nc(-c2ccccc2)cs1.Oc1ccccc1/C=N/c1nc(-c2ccccc2)cs1.[Zn]
inactive: endpoint: mean survival time, dose: 25.0 mg/kg/injection, schedule: Q01DX001 (ip), vehicle: saline 103 % of control | endpoint: mean survival time, dose: 50.0 mg/kg/injection, schedule: Q01DX001 (ip), vehicle: saline 100 % of control | [12] 104 % of control | endpoint: mean survival time, dose: 100.0 mg/kg/injection, schedule: Q01DX001 (ip), vehicle: saline 91 % of control

OC1CCSc2ccc3ccccc3c21 (stereo unspecified)
inactive: [12] 108 % of control | endpoint: mean survival time, dose: 200.0 mg/kg/injection, schedule: Q01DX001 (ip), vehicle: saline with Tween-80 105 % of control | endpoint: mean survival time, dose: 400.0 mg/kg/injection, schedule: Q01DX001 (ip), vehicle: saline with Tween-80 103 % of control

N.O=S(=O)(O)O.[Al]
inactive: [11] 97 % of control | [4] 91 % of control | [1] 94 % of control | [5] 96 % of control | [2] 99 % of control
